# Patent publication US20220081412A1, “QUINOLINYL-PYRAZINE-CARBOXAMIDE COMPOUNDS AND USES THEREOF” (The Regents of the University of Michigan, priority 2018, published 2022)
# Tested on: MIA PaCa-2 cells
# Assay: Bru-seq analysis for nascent RNA synthesis (log2FC of genes, GSEA gene sets)
# Assay type: cell-based, human
# [1] = downregulated gene sets, TFBT, 4 h, MIA PaCa-2 cells
# [2] = gene set ADDYA_ERYTHROID_DIFFERENTIATION_BY_HEMIN, 4 h
# [3] = gene set AMIT_SERUM_RESPONSE_60_MCF10A, 4 h
# [4] = gene set BURTON_ADIPOGENESIS_10, 4 h
# [5] = gene set CHANG_CORE_SERUM_RESPONSE_DN, 4 h
# [6] = gene set CUI_GLUCOSE_DEPRIVATION, 4 h
# [7] = gene set DACOSTA_UV_RESPONSE_VIA_ERCC3_UP, 4 h
# [8] = gene set DAZARD_RESPONSE_TO_UV_NHEK_UP, 4 h
# [9] = gene set DIRMEIER_LMP1_RESPONSE_EARLY, 4 h
# [10] = gene set ENK_UV_RESPONSE_KERATINOCYTE_UP, 4 h
# [11] = gene set GEORGANTAS_HSC_MARKERS, 4 h
# [12] = gene set GO_ALCOHOL_BIOSYNTHETIC_PROCESS, 4 h
# [13] = gene set GO_ALCOHOL_METABOLIC_PROCESS, 4 h
# [14] = gene set GO_CELLULAR_LIPID_CATABOLIC_PROCESS, 4 h
# [15] = gene set GO_CELLULAR_RESPONSE_TO_TOPOLOGICALLY_INCORRECT_PROTEIN, 4 h
# [16] = gene set GO_CHROMATIN_ASSEMBLY_OR_DISASSEMBLY, 4 h
# [17] = gene set GO_DNA_PACKAGING_COMPLEX, 4 h
# [18] = gene set GO_ER_NUCLEUS_SIGNALING_PATHWAY, 4 h
# [19] = gene set GO_FATTY_ACID_BIOSYNTHETIC_PROCESS, 4 h
# [20] = gene set GO_INTRINSIC_COMPONENT_OF_ENDOPLASMIC_RETICULUM_MEMBRANE, 4 h
# [21] = gene set GO_IRE1_MEDIATED_UNFOLDED_PROTEIN_RESPONSE, 4 h
# [22] = gene set GO_ISOPRENOID_BIOSYNTHETIC_PROCESS, 4 h
# [23] = gene set GO_LYSOSOMAL_LUMEN, 4 h
# [24] = gene set GO_NUCLEAR_NUCLEOSOME, 4 h
# [25] = gene set GO_ORGANIC_HYDROXY_COMPOUND_BIOSYNTHETIC_PROCESS, 4 h
# [26] = gene set GO_PROTEIN_DNA_COMPLEX, 4 h
# [27] = gene set GO_PROTEIN_DNA_COMPLEX_SUBUNIT_ORGANIZATION, 4 h
# [28] = gene set GO_REGULATION_OF_ENDOPLASMIC_RETICULUM_STRESS_INDUCED_INTRINSIC_APOPTOTIC_SIGNALING_PATHWAY, 4 h
# [29] = gene set GO_RESPONSE_TO_ENDOPLASMIC_RETICULUM_STRESS, 4 h
# [30] = gene set GO_RESPONSE_TO_TOPOLOGICALLY_INCORRECT_PROTEIN, 4 h
# [31] = gene set GO_SMALL_MOLECULE_BIOSYNTHETIC_PROCESS, 4 h
# [32] = gene set GO_STEROID_BIOSYNTHETIC_PROCESS, 4 h
# [33] = gene set GO_STEROID_METABOLIC_PROCESS, 4 h
# [34] = gene set GO_STEROL_BIOSYNTHETIC_PROCESS, 4 h
# [35] = gene set GO_STEROL_METABOLIC_PROCESS, 4 h
# [36] = gene set HALLMARK_ADIPOGENESIS, 4 h
# [37] = gene set HALLMARK_ANDROGEN_RESPONSE, 4 h
# [38] = gene set HALLMARK_APOPTOSIS, 4 h
# [39] = gene set HALLMARK_CHOLESTEROL_HOMEOSTASIS, 4 h
# [40] = gene set HALLMARK_COAGULATION, 4 h
# [41] = gene set HALLMARK_DNA_REPAIR, 4 h
# [42] = gene set HALLMARK_EPITHELIAL_MESENCHYMAL_TRANSITION, 4 h
# [43] = gene set HALLMARK_ESTROGEN_RESPONSE_EARLY, 4 h
# [44] = gene set HALLMARK_ESTROGEN_RESPONSE_LATE, 4 h
# [45] = gene set HALLMARK_FATTY_ACID_METABOLISM, 4 h
# [46] = gene set HALLMARK_GLYCOLYSIS, 4 h
# [47] = gene set HALLMARK_HEME_METABOLISM, 4 h
structure (smiles),measurement,setting,value
"CCN(CC)CCCC(C)Nc1cnc(C(=O)Nc2cc(C)cc3cccnc23)cn1 (stereo not drawn) [J4, 5-((5-(diethylamino)pentan-2-yl)amino)-N-(6-methylquinolin-8-yl)pyrazine-2-carboxamide]",ES PBX1_02,[1],−0.282
same,ES PIT1_Q6,[1],−0.263
same,ES POU1F1_Q6,[1],−0.236
same,ES TAANNYSGCG_UNKNOWN,[1],−0.253
same,ES TAAWWATAG_RSRFC4_Q2,[1],−0.271
same,ES TAAYNRNNTCC_UNKNOWN,[1],−0.314
same,ES YKACATTT_UNKNOWN,[1],−0.221
same,NES BRN2_01,[1],−1.086
same,NES CDPCR1_01,[1],−1.030
same,NES CDP_01,[1],−1.041
same,NES EN1_01,[1],−1.062
same,NES FOXJ2_02,[1],−1.154
same,NES GGCKCATGS_UNKNOWN,[1],−1.621
same,NES HMEF2_Q6,[1],−1.037
same,NES HNF1_Q6,[1],−1.145
same,NES HOX13_01,[1],−1.144
same,NES IK1_01,[1],−1.074
same,NES IRF2_01,[1],−1.322
same,NES MEF2_02,[1],−0.965
same,NES MEF2_Q6_01,[1],−0.985
same,NES MEIS1BHOXA9_01,[1],−1.269
same,NES NKX3A_01,[1],−1.213
same,NES PAX8_01,[1],−1.304
same,NES PBX1_02,[1],−1.130
same,NES PIT1_Q6,[1],−1.156
same,NES POU1F1_Q6,[1],−1.032
same,NES TAANNYSGCG_UNKNOWN,[1],−1.012
same,NES TAAWWATAG_RSRFC4_Q2,[1],−1.112
same,NES TAAYNRNNTCC_UNKNOWN,[1],−1.303
same,NES YKACATTT_UNKNOWN,[1],−1.039
same,ES,[2],0.708
same,NES,[2],2.307
same,ES,[3],0.728
same,NES,[3],2.228
same,ES,[4],0.790
same,NES,[4],2.254
same,ES,[5],0.624
same,NES,[5],2.370
same,ES,[6],0.760
same,NES,[6],2.383
same,ES,[7],0.569
same,NES,[7],2.301
same,ES,[8],0.602
same,NES,[8],2.291
same,ES,[9],0.764
same,NES,[9],2.410
same,ES,[10],0.590
same,NES,[10],2.464
same,ES,[11],0.736
same,NES,[11],2.234
same,ES,[12],0.728
same,NES,[12],2.531
same,ES,[13],0.543
same,NES,[13],2.127
same,ES,[14],0.577
same,NES,[14],2.080
same,ES,[15],0.635
same,NES,[15],2.333
same,ES,[16],0.576
same,NES,[16],2.165
same,ES,"gene set GO_DNA_PACKAGING, 4 h",0.570
same,NES,"gene set GO_DNA_PACKAGING, 4 h",2.161
same,ES,[17],0.755
same,NES,[17],2.422
same,ES,[18],0.739
same,NES,[18],2.156
same,ES,[19],0.626
same,NES,[19],2.043
same,ES,[20],0.577
same,NES,[20],2.075
same,ES,[21],0.690
same,NES,[21],2.300
same,ES,[22],0.796
same,NES,[22],2.093
same,ES,[23],0.637
same,NES,[23],2.060
same,ES,[24],0.832
same,NES,[24],2.218
same,ES,[25],0.651
same,NES,[25],2.372
same,ES,[26],0.619
same,NES,[26],2.288
same,ES,[27],0.521
same,NES,[27],2.041
same,ES,[28],0.774
same,NES,[28],2.132
same,ES,[29],0.526
same,NES,[29],2.067
same,ES,[30],0.616
same,NES,[30],2.337
same,ES,[31],0.555
same,NES,[31],2.227
same,ES,[32],0.784
same,NES,[32],2.632
same,ES,[33],0.667
same,NES,[33],2.432
same,ES,[34],0.878
same,NES,[34],2.656
same,ES,[35],0.748
same,NES,[35],2.604
same,ES,[36],0.465
same,NES,[36],1.784
same,ES,[37],0.529
same,NES,[37],1.875
same,ES,[38],0.485
same,NES,[38],1.804
same,ES,[39],0.759
same,NES,[39],2.533
same,ES,[40],0.516
same,NES,[40],1.624
same,ES,[41],0.377
same,NES,[41],1.422
same,ES,[42],0.407
same,NES,[42],1.436
same,ES,[43],0.458
same,NES,[43],1.719
same,ES,[44],0.443
same,NES,[44],1.631
same,ES,[45],0.551
same,NES,[45],2.054
same,ES,[46],0.417
same,NES,[46],1.603
same,ES,[47],0.389
same,NES,[47],1.480
same,ES,"gene set HALLMARK_HYPOXIA, 4 h",0.591
same,NES,"gene set HALLMARK_HYPOXIA, 4 h",2.235
